Experimental data from publication PMC9788418, “Design, Synthesis and Biological Evaluation of Syn and Anti-like Double Warhead Quinolinones Bearing Dihydroxy Naphthalene Moiety as Epidermal Growth Factor Receptor Inhibitors with Potential Apoptotic Antiproliferative Action” (Molecules, 2022).
Read-outs that look alike come from different tables or passages of the source.

What was measured:
[1] = test system: HT-29 (colon cancer cell line); experiment: Antiproliferative assay; assay type: cell-based, human; conditions: read-out: Antiproliferative Activity IC50 ± SEM, HT-29
Experimental: (§1) 4.2.1.2. Assay for antiproliferative effect
(§2) To explore the antiproliferative potential of compounds MTT assay was performed according to previously reported procedure using different cell lines to explore the antiproliferative potential of compounds propidium iodide fluorescence assay was performed using different cell lines. To calculate the total nuclear DNA, a fluorescent dye (propidium iodide, PI) is used which can attach to the DNA, thus offering a quick and precise technique. PI cannot pass through the cell membrane and its signal intensity can be considered as directly proportional to quantity of cellular DNA. Cells whose cell membranes are damaged or have changed permeability are counted as dead ones. The assay was performed by seeding the cells of different cell lines at a density of 3000-7500 cells/well (in 200µl […]
(§3) atmospheric conditions. The medium was removed; the compounds were added to the plates at 10 µM concentrations (in 0.1% DMSO) in triplicates, followed by incubation for 48 h. DMSO (0.1%) was used as control. After incubation, medium was removed followed by the addition of PI (25 µl, 50µg/mL in water/medium) to each well of the plates. At -80 °C, the plates were allowed to freeze for 24 h, followed by thawing at 25 °C. A fluorometer (Polar-Star BMG Tech) was used to record the readings at excitation and emission wavelengths of 530 and 620 nm for each well. The percentage cytotoxicity of compounds was calculated using the following formula:
(§4) Where ATC= Absorbance of treated cells and AC= Absorbance of control. […]
(§5) positive control in the assay.

[2] = test system: MCF-7 (breast cancer cell line); experiment: Antiproliferative assay; assay type: cell-based, human; conditions: read-out: Antiproliferative Activity IC50 ± SEM, MCF-7
Experimental: as §1, §2, §3, §4, §5

[3] = test system: A-549 (epithelial cancer cell line); experiment: Antiproliferative assay; assay type: cell-based, human; conditions: read-out: Antiproliferative Activity IC50 ± SEM, A-549
Experimental: as §1, §2, §3, §4, §5

[4] = test system: Panc-1 (pancreas cancer cell line); experiment: Antiproliferative assay; assay type: cell-based, human; conditions: read-out: Antiproliferative Activity IC50 ± SEM, Panc-1
Experimental: (§6) 4.2. Biological evaluation
4.2.1. Cytotoxic activity using MTT Assay and evaluation of IC50 […]
cells were seeded at a density of 10^4 cells mL-1 in flat-bottomed culture plates containing 96 wells each. After 24 h, medium was removed from the plates and the compounds in (in 0.1% DMSO) were added (in 200 μL medium to yield a final concentration of 0.1% v/v) to the wells of plates. A single […]
incubation, medium was removed completely from the plates followed by addition of MTT (0.4 mg/mL in medium) to each well and subsequent incubation of plates for 3h. MTT (along with the medium) was removed and DMSO (150μL) was added to each well of the culture plates, followed by vortexing and subsequent measurement of absorbance (at 540 nm) using microplate reader. The data […]
as §1, §2, §3, §4, §5

[5] = test system: MCF-10A (human mammary gland epithelial) cell line; experiment: Cell viability assay (MTT) on normal cell line; assay type: cell-based; conditions: 50 µM, four days
Experimental: (§7) A cell viability test was performed using MCF-10A (human mammary gland epithelial) cell line to investigate the effect of 4a–e and 7a–e on normal cell lines. In this investigation, a concentration of 50 µM of the studied compound is employed for four days, after which cell viability is assessed.
as §6
(§8) 4.2.1. Cytotoxic activity using MTT Assay and evaluation of IC50
(§9) MTT assay was carried out to study the effect of compounds on mammary epithelial cells (MCF-10A). The medium in which cells were propagated contained Dulbecco's modified Eagle's medium (DMEM)/ Ham's F-12 medium (1:1) supplemented with epidermal growth factor (20 ng/mL), hydrocortisone (500 ng/mL), insulin (10 μg/mL), 2 mM glutamine and 10% foetal calf serum. After every 2-3 days, the cells were passaged using trypsin ethylenediamine tetra acetic acid (EDTA). The cells were seeded at a density of 10^4 cells mL-1 in flat-bottomed culture plates containing 96 wells each. After 24 h, medium was removed from the plates and the compounds in (in 0.1% DMSO) were added (in 200 μL medium to yield a final concentration of 0.1% v/v) to the wells of plates. A single compound was designated with four wells followed by incubation of plates for 96h at 37°C. After incubation, medium was removed completely from the plates followed by addition of MTT (0.4 mg/mL in medium) to each well and subsequent incubation of plates for 3h. MTT (along with the medium) was removed and DMSO (150μL) was added to each well of the culture plates, followed by vortexing and subsequent measurement of absorbance (at 540 nm) using microplate reader. […]

[6] = test system: four tested cancer cell lines (A-549, MCF-7, Panc-1, HT-29); experiment: Antiproliferative assay, average over the four cell lines; assay type: cell-based, human; conditions: for GI50: mean of the four cancer cell lines
Experimental: The newly synthesized compounds were tested for antiproliferative activity against four different types of cancer cells: A-549 (epithelial cancer cell line), MCF-7 (breast cancer cell line), Panc-1 (pancreas cancer cell line), and HT-29 (colon cancer cell line).
After 24 h, medium was removed from the plates and the compounds in (in 0.1% DMSO) were added (in 200 μL medium to yield a final concentration of 0.1% v/v) to the wells of plates. A single compound was designated with four wells followed by incubation of plates for 96h at 37°C. After incubation, medium was removed completely from the plates followed by addition of MTT (0.4 mg/mL in medium) to each well and subsequent incubation of plates for 3h. MTT (along with the medium) was removed and DMSO (150μL) was added to each well of the culture plates, followed by vortexing and subsequent measurement of absorbance (at 540 nm) using microplate reader. The data are shown as percentage inhibition of proliferation in comparison with controls containing 0.1% 4.2.1.2. Assay for antiproliferative effect
To explore the antiproliferative potential of compounds MTT assay was performed according to previously reported procedure using different cell lines to explore the antiproliferative potential of compounds propidium iodide fluorescence assay was performed using different cell lines. To calculate the total nuclear DNA, a fluorescent dye (propidium iodide, PI) is used which can attach to the DNA, thus offering a quick and precise technique. PI cannot pass through the cell membrane and its signal intensity can be considered as directly proportional to quantity of cellular DNA. Cells whose cell membranes are damaged or have changed permeability are counted as dead ones. The assay was performed by seeding the cells of different cell lines at a density of 3000-7500 cells/well (in 200µl medium) in culture plates followed by incubation for 24h at 37 °C in humidified 5% CO2/95% air atmospheric conditions. The medium was removed; the compounds were added to the plates at 10 µM concentrations (in 0.1% DMSO) in triplicates, followed by incubation for 48 h. DMSO (0.1%) was used as control. After incubation, medium was removed followed by the addition of PI (25 µl, 50µg/mL in water/medium) to each well of the plates. At -80 °C, the plates were allowed to freeze for 24 h, followed by thawing at 25 °C. A fluorometer (Polar-Star BMG Tech) was used to record the readings at excitation and emission wavelengths of 530 and 620 nm for each well. The percentage cytotoxicity of compounds was calculated using the following formula:
Where ATC= Absorbance of treated cells and AC= Absorbance of control. Erlotinib was used as positive control in the assay.

[7] = Cell viability assay (MTT) on normal cell line; assay type: cell-based, human; conditions: human, four days
Experimental: as §7, §6, §8, §9

[8] = test system: caspase-3; experiment: Caspase-3 activation assay; conditions: A-549, vs control untreated cells
Experimental: (§10) record autophosphorylation level, EGFR kinase assay was carried out based on DELFIA/Time-
(§11) Resolved Fluorometry. The compounds were first dissolved in DMSO absolute, after dilution to
Each compound (10 µL) was incubated
(§12) with recombinant enzyme (10 µL, 5 ng for EGFR, 1:80 dilution in 100 mM HEPES) for 10 min at
(§13) 25 °C, after the addition of 5X buffer (10 µL, containing 2 mM MnCl2, 100 µM Na3VO4, 20 mM HEPES and 1 mM DTT) and ATP-MgCl2 (20 µL, containing 0.1 mM ATP and 50 mM MgCl2) and
(§14) incubation for 1h. The negative and positive controls were included in each plate by the incubation
(§15) of enzyme either with or without ATP-MgCl2. The liquid was removed after incubation and the plates
(§16) were washed thrice using wash buffer. Europium-tagged antiphosphotyrosine antibody (75 µL, 400
(§17) ng) was added to each well followed by incubation of 1h and then washing of the plates using buffer.
(§18) The enhancement solution was added to each well and the signal was recorded at excitation and
(§19) The autophosphorylation percentage inhibition by compounds was calculated using the following equation:

[9] = target: T1, EGFR (Homo sapiens, UniProt P00533); experiment: EGFR inhibitory assay (EGFR-TK, DELFIA/time-resolved fluorometry)
Experimental: EGFR-TK assay was performed to evaluate the inhibitory potency of novel compounds against
EGFR. Baculoviral expression vectors including pBlueBacHis2B and pFASTBacHTc were used
5ʹ upstream to the EGFR sequence comprised a sequence that encoded (His)6. Sf-9 cells were infected for 72h for protein expression. The pellets of Sf-9 cells were solubilized in a buffer containing sodium vanadate (100 µM), aprotinin (10 µg/mL), triton (1%), HEPES buffer (50mM), ammonium molybdate (10 µM), benzamidine HCl (16 µg/mL), NaCl (10 mM), leupeptin (10 µg/mL) and pepstatin (10 µg/mL) at 0°C for 20 min at pH 7.4, followed by centrifugation for 20 min.
To eliminate the non-specifically bound material, a Ni-NTA super flow packed column was used to pass through and wash the crude extract supernatant first with 10 mM and then with 100 mM imidazole. Histidine-linked proteins were first eluted with 250 and then with 500 mM imidazole after (1 picture or pasted object on this page, not shown here)
dialysis against NaCl (50 mM), HEPES (20 mM), glycerol (10%) and 1 µg/mL each of aprotinin, leupeptin and pepstatin for 120 min. The purification was performed either at 4 °C or on ice. To
as §10, §11
Each compound (10 µL) was incubated
as §12, §13, §14, §15, §16, §17, §18, §19

[10] = test system: four cancer cell lines; parameters: method as in PMID 35195309; conditions: cited from earlier work
[11] = test system: caspase-3; parameters: method as in PMID 35195309; conditions: human Panc-1 cancer cells; cited from earlier work
[12] = test system: Bcl-2; parameters: method as in PMID 35195309; conditions: cited from earlier work
[13] = test system: Cytochrome-C; parameters: method as in PMID 35195309; conditions: human Panc-1 cancer cells; cited from earlier work
[14] = test system: Bax; parameters: method as in PMID 35195309; conditions: vs normal untreated cells; cited from earlier work
[15] = test system: caspase-9; parameters: method as in PMID 35195309; conditions: human Panc-1 cancer cells; cited from earlier work
[16] = target: T1, EGFR; parameters: 645–1186); His6 (N); made in house; host or cells: Sf-9 insect cells (baculovirus; pBlueBacHis2B and pFASTBacHTc vectors; conditions: cited from earlier work
[17] = MCF-10A mammary gland epithelial cells

T1 sequence (P00533 669-1210): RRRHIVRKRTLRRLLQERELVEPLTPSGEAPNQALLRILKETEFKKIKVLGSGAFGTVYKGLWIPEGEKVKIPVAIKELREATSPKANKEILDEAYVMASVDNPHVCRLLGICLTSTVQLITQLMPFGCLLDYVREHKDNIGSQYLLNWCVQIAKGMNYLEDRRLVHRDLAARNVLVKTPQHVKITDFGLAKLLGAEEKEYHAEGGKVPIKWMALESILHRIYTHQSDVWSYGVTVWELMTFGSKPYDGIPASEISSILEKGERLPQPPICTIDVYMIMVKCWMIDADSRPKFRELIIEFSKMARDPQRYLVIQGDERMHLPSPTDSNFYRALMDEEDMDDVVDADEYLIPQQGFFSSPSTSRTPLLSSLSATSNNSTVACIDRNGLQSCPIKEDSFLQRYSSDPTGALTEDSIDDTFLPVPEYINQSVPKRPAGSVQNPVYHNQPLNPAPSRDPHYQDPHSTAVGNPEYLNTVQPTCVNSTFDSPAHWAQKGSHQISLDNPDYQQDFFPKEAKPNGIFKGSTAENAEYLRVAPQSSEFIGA

IC50 ([1]; Homo sapiens)	IC50 ([2]; Homo sapiens, MCF7)	IC50 ([3]; Homo sapiens, A549)	IC50 ([4]; Homo sapiens, PANC-1)	melting point	GI50 ([6]; Homo sapiens)	Molecule	viability at 96 h, 50 µM [7, 17]	other results
–	–	–	–	–	–	4,4′-(((naphthalene-1,8-diylbis(oxy))bis(methylene))bis(1H-1,2,3-triazole-4,1-diyl))-bis-(8-methylquinolin-2(1H)-one) [Compound 4d]	–	IC50 [1]: 97 ± 9 nM; IC50 ([2]; MCF-7): 95 ± 9 nM; IC50 ([3]; A-549): 90 ± 9 nM; IC50 ([4]; Panc-1): 98 ± 9 nM; Cell Viability % [5]: 86%; GI50 [6]: 95 nM; times less potent than 4b (GI50) ([6]; relative to 4b): at least twofold less potent
81 ± 8 nM	79 ± 8 nM	78 ± 8 nM	83 ± 8 nM	> 360 °C	80 nM	COc1ccc2[nH]c(=O)cc(-n3cc(COc4cccc5cccc(OCc6cn(-c7cc(=O)[nH]c8ccc(OC)cc78)nn6)c45)nn3)c2c1 [Compound 4c, 4,4′-(((naphthalene-1,8-diylbis(oxy))bis(methylene))bis(1H-1,2,3-triazole-4,1-diyl))-bis-(6-methoxyquinolin-2(1H)-one)]	87%	–
65 ± 6 nM	59 ± 6 nM	57 ± 6 nM	62 ± 6 nM	> 360 °C	–	O=c1cc(-n2cc(COc3cccc4c(OCc5cn(-c6cc(=O)[nH]c7ccccc67)nn5)cccc34)nn2)c2ccccc2[nH]1 [Compound 7a, 4,4′-(((naphthalene-1,5-diylbis(oxy))bis(methylene))bis(1H-1,2,3-triazole-4,1-diyl))-bis-(quinolin-2(1H)-one)]	89%	–
76 ± 7 nM	74 ± 7 nM	70 ± 7 nM	75 ± 7 nM	> 360 °C	74 nM	COc1ccc2[nH]c(=O)cc(-n3cc(COc4cccc5c(OCc6cn(-c7cc(=O)[nH]c8ccc(OC)cc78)nn6)cccc45)nn3)c2c1 [Compound 7c, 4,4′-(((naphthalene-1,5-diylbis(oxy))bis(methylene))bis(1H-1,2,3-triazole-4,1-diyl))-bis-(6-methoxyquinolin-2(1H)-one)]	91%	–
57 ± 5 nM	53 ± 5 nM	50 ± 5 nM	57 ± 5 nM	–	54 nM	Cc1cccc2c(-n3cc(COc4cccc5c(OCc6cn(-c7cc(=O)[nH]c8c(C)cccc78)nn6)cccc45)nn3)cc(=O)[nH]c12 [Compound 7d, 4,4′-(((naphthalene-1,5-diylbis(oxy))bis(methylene))bis(1H-1,2,3-triazole-4,1-diyl))-bis-(8-methylquinolin-2(1H)-one)]	–	Caspase-3 Fold Change [8]: 7.40; viability at 96 h, 50 µM ([7]; MCF-10A mammary gland epithelial cells (normal cell line)): 89%; IC50 [9]: 97 ± 9 nM; fold less effective than erlotinib (EGFR IC50) ([9]; relative to erlotinib): roughly 1.3 fold
–	–	–	–	–	–	O=C(CSc1nnc(Cn2cc(-c3ccccc3)nn2)o1)Nc1nc(-c2ccc(Cl)cc2)cs1 [Compound VI]	–	GI50 [10]: 230 nM; Caspase-3 level increase [11]: 7.80 times; Bcl-2 level decrease [12]: 6.3 fold; Cytochrome-C level increase [13]: 13 times; Bax level elevation [14]: 40 fold; Caspase-9 level increase [15]: 19.30 times; IC50 [16]: 110 nM
–	–	–	–	–	–	CN(C)c1ccc(/C=C/C(=O)c2ccc3ncc(C(N)=O)c(Nc4ccc(Cl)cc4)c3c2)cc1 [III]	–	IC50 [16]: 5200 nM
